Assay results as given in ChEMBL document CHEMBL5120766, “Recent insight into the biological activities and SAR of quinolone derivatives as multifunctional scaffold” (Bioorg Med Chem, 2022).
Values after ≈ are worked out from the molar mass of the structure shown.

Legend:
Cytochrome P450 3A4 = Cytochrome P450 3A4 (Homo sapiens, UniProt P08684); assay: Inhibition of CYP3A4 in human liver microsomes using midazolam as substrate; format: ADME, Microsome
Escherichia coli [1] = assay: Antibacterial activity against Escherichia coli ATCC 35218 incubated for 24 hrs by serial dilution method; format: functional
Klebsiella pneumoniae = assay: Antibacterial activity against Klebsiella pneumoniae ATCC 35657 incubated for 24 hrs by serial dilution method; format: functional
[2] = test system: Mycobacterium tuberculosis; assay: Antimycobacterial activity against Mycobacterium tuberculosis H37Rv assessed as inhibition of bacterial growth measured after 24 hrs by turbidity based analysis; format: functional
Staphylococcus aureus [3] = assay: Antibacterial activity against Staphylococcus aureus ATCC 6538 assessed as zone of inhibition by agar dilution method; format: functional
Escherichia coli [4] = assay: Antibacterial activity against Escherichia coli ATCC 8739 assessed as zone of inhibition by agar dilution method; format: functional
Bacteroides fragilis = assay: Antibacterial activity against Bacteroides fragilis PA-2-II incubated for 18 hrs by microbroth dilution method; format: functional
Clostridium perfringens = assay: Antibacterial activity against Clostridium perfringens 22 incubated for 18 hrs by microbroth dilution method; format: functional
A549 = assay: Antiproliferative activity against human A549 cells assessed as cell growth inhibition measured after 72 hrs by MTT assay; format: functional, cell-based; conditions: A549, 72 h
Plasmodium falciparum [5] = assay: Antiplasmodial activity against Plasmodium falciparum 3D7 assessed as cell growth inhibition; format: functional, organism-based
Plasmodium falciparum [6] = assay: Antiplasmodial activity against chloroquine sensitive Plasmodium falciparum NF54 infected in human red blood cells assessed as reduction in [3H]-hypoxanthine incorporation pretreated for 48 hrs followed by [3H]-hypoxanthine addition measured after 24 hrs by scintillation counting method; format: functional, organism-based
Plasmodium falciparum [7] = assay: Antiplasmodial activity against Plasmodium falciparum FCR-3 assessed as cell growth inhibition; format: functional, organism-based
Pseudomonas aeruginosa [8] = assay: Antibacterial activity against Pseudomonas aeruginosa NCDC 105 assessed as zone of inhibition at 100 ug/ml by agar well diffusion method; format: functional; conditions: read-out: DIZ
Pseudomonas aeruginosa [9] = assay: Antibacterial activity against Pseudomonas aeruginosa NCDC 105 assessed as zone of inhibition at 50 ug/ml by agar well diffusion method; format: functional; conditions: read-out: DIZ
Pseudomonas aeruginosa [10] = assay: Antibacterial activity against Pseudomonas aeruginosa NCDC 105 assessed as zone of inhibition at 10 ug/ml by agar well diffusion method; format: functional; conditions: read-out: DIZ
[11] = test system: Mycobacterium tuberculosis; assay: Antimycobacterial activity against Mycobacterium tuberculosis H37Rv assessed as inhibition of bacterial growth measured after 7 days by alamar blue dye based microplate analysis; format: functional; conditions: 168 h, time 7 day
Escherichia coli [12] = assay: Antibacterial activity against Escherichia coli PTCC 1047 assessed as zone of inhibition incubated for 24 hrs by cup-plate agar diffusion method; format: functional
Bacillus subtilis [13] = assay: Antibacterial activity against Bacillus subtilis PTCC 1207 assessed as zone of inhibition incubated for 24 hrs by cup-plate agar diffusion method; format: functional
[14] = test system: Staphylococcus epidermidis; assay: Antibacterial activity against Staphylococcus epidermidis ATCC 12228 incubated for 18 hrs by agar dilution method; format: functional
Bacillus subtilis [15] = assay: Antibacterial activity against Bacillus subtilis ATCC 6633 incubated for 18 hrs by agar dilution method; format: functional
Staphylococcus aureus [16] = assay: Antibacterial activity against Staphylococcus aureus ATCC 6538p incubated for 18 hrs by agar dilution method; format: functional
[17] = test system: Human immunodeficiency virus 1; assay: Antiviral activity against HIV1 A17 mutant infected in human C8166 cells; format: functional, organism-based; conditions: Human immunodeficiency virus 1, A17, C8166
[18] = test system: Human immunodeficiency virus 1; assay: Antiviral activity against wild type HIV1 infected in human C8166 cells; format: functional, organism-based; conditions: Human immunodeficiency virus 1, C8166
[19] = test system: Human immunodeficiency virus 1; assay: Antiviral activity against HIV1 infected in human MT4 cells by MTT assay; format: functional, organism-based; conditions: Human immunodeficiency virus 1, MT4
[20] = test system: Human immunodeficiency virus 2; assay: Antiviral activity against HIV2 infected in human MT4 cells by MTT assay; format: functional, organism-based; conditions: Human immunodeficiency virus 2, MT4

Cytochrome P450 3A4, sequence (P08684 whole entry): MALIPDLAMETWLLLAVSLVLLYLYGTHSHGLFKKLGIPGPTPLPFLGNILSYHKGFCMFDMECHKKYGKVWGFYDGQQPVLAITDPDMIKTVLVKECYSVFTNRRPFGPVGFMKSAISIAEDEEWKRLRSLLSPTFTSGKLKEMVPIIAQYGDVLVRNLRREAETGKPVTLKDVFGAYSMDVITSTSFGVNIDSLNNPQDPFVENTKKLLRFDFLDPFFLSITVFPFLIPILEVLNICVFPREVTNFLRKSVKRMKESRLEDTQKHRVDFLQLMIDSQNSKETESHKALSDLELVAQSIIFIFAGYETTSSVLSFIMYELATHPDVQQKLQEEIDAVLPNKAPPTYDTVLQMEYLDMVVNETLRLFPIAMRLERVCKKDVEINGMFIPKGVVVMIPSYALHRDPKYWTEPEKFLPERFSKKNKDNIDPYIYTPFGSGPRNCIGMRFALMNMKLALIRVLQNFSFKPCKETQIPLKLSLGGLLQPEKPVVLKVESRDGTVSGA

`COc1c(N2CC[C@@H](C3(N)CC3)C2)ccc2c(=O)c(C(=O)O)cn([C@@H]3C[C@@H]3F)c12` was tested, and the Ki (Cytochrome P450 3A4) was 67.9 µM.

Work on `O=C(NO)c1cn(C2CC2)c2cc(-n3cc(CN4CCOCC4)nn3)c(F)cc2c1=O` yielded an MIC (Escherichia coli [1]) of 4 µg/mL (≈ 9.34 µM) and an MIC (Klebsiella pneumoniae) of 4 µg/mL (≈ 9.34 µM).

Molecule `CCn1cc(C(=O)O)c(=O)c2cc(F)c(N3CCN(CC(=O)Nc4nnc(-c5ccc(Cl)cc5Cl)s4)CC3)cc21` has an MIC [2] of 8 µg/mL (≈ 13.2 µM).

`O=C([O-])c1cn(CCn2cc(C(=O)[O-])c(=O)c3cc(F)c(N4CC5CCCNC5C4)c(F)c32)c2c(F)c(N3CC4CCCNC4C3)c(F)cc2c1=O.[Na+].[Na+]` (stereo unspecified) was tested, and the “diameter of the inhibition zone (DIZ)” value (Staphylococcus aureus [3]) was 15 mm and the “diameter of the inhibition zone (DIZ)” value (Escherichia coli [4]) was 22 mm.

Work on `Cc1c(N2C[C@]3(N)CCC[C@]3(F)C2)c(F)cc2c(=O)c(C(=O)O)cn([C@@H]3C[C@@H]3F)c12.Cl.O.O` yielded an MIC (Bacteroides fragilis) of at most 0.05 µg/mL and an MIC (Clostridium perfringens) of at most 0.05 µg/mL.

`N=C(NS(=O)(=O)c1ccccc1C(F)(F)F)N1CCN(c2cc3c(cc2F)c(=O)c(C(=O)O)cn3-c2ccc(F)cc2F)CC1` was tested, and the IC50 (A549) was 0.009 µM.

`C[C@H]1[C@@H](OC(=O)c2cn(C3CC3)c3cc(N4CCNCC4)c(F)cc3c2=O)O[C@@H]2O[C@@]3(C)CC[C@H]4[C@H](C)CC[C@@H]1[C@@]24OO3` was tested, and the IC50 (Plasmodium falciparum [5]) was 0.00997 µM.

In the case of `Cn1c(-c2ccc(CCCCCCCCCCN3CCCCC3)cc2)cc(=O)c2ccccc21`, the IC50 (Plasmodium falciparum [6]) is reported as 0.82 µM.

In the case of `Cn1cc(C(=O)N/N=C\c2ccccn2)c(=O)c2cc(F)ccc21`, the IC50 (Plasmodium falciparum [7]) is reported as 3.3 µM.

`Cn1c(-c2ccc(CCCCCCBr)cc2)cc(=O)c2ccccc21` gave an IC50 (Plasmodium falciparum [6]) of 0.09 µM.

Molecule `CCn1cc(C(=O)O)c(=O)c2cc(F)c(N3CCN(CNc4nc5ccc(F)cc5s4)CC3)cc21` has a zone of inhibition at 100 µg/mL (Pseudomonas aeruginosa [8]) of 4.8 mm, a zone of inhibition at 50 µg/mL (Pseudomonas aeruginosa [9]) of 3.8 mm and a zone of inhibition at 10 µg/mL (Pseudomonas aeruginosa [10]) of 3.3 mm.

`COc1ccc(C(=O)N/N=C(/C)CCN2CCN(c3c(F)cc4c(=O)c(C(=O)O)cn(C5CC5)c4c3OC)CC2)cc1` was tested, and the MIC [11] was 0.5 µM (≈ 0.29 µg/mL).

With `CCn1cc(C(=O)O)c(=O)c2cc(F)c(N3CCN(C/C(=N\OC)c4cc5cccc(OC)c5oc4=O)CC3)nc21` the “diameter of the inhibition zone (DIZ)” value (Escherichia coli [12]) was 35 mm and the “diameter of the inhibition zone (DIZ)” value (Bacillus subtilis [13]) was 39 mm.

For `O=C(O)c1cn(-c2ccc(F)cc2)c2cc(N3CCN(C/C(=N\O)c4ccccc4)CC3)c(F)cc2c1=O`, the MIC [14] was under 0.125 µg/mL, the MIC (Bacillus subtilis [15]) was under 0.125 µg/mL and the MIC (Staphylococcus aureus [16]) was under 0.125 µg/mL.

Molecule `O=C(O)c1cn(C2CC2)c2cc(N3CCN(CNc4nc5ccc([N+](=O)[O-])cc5s4)CC3)c(F)cc2c1=O` has a zone of inhibition at 100 µg/mL (Pseudomonas aeruginosa [8]) of 6.3 mm, a zone of inhibition at 50 µg/mL (Pseudomonas aeruginosa [9]) of 5.5 mm and a zone of inhibition at 10 µg/mL (Pseudomonas aeruginosa [10]) of 3.5 mm.

In the case of `CCn1cc(C(=O)O)c(=O)c2cc(F)c(N3CCN(C/C(=N\OC)c4cc5cccc(OC)c5oc4=O)CC3)cc21`, the “diameter of the inhibition zone (DIZ)” value (Escherichia coli [12]) is reported as 32 mm and the “diameter of the inhibition zone (DIZ)” value (Bacillus subtilis [13]) is reported as 36 mm.

`CC(C)[C@@H](CO)n1cc(C(=O)O)c(=O)c2c(F)c(Cc3cccc(Cl)c3F)ccc21` showed an EC50 [17] of 0.082 µM and an EC50 [18] of 0.032 µM.

Work on `Cn1cc(C(=O)O)c(=O)c2ccc(N3CCN(c4nc5ccccc5s4)CC3)nc21` yielded an EC50 [19] of 0.06 µM and an EC50 [20] of 0.04 µM.
